{
  "source": "patent US20220332799A1",
  "about": "“HERV INHIBITORS FOR USE IN TREATING TAUOPATHIES” (Deutsches Zentrum Für Neurodegenerative Erkrankungen E.V. …, priority 2019, published 2022)",
  "key": {"[1]": {"tested_on": "N2a NM-GFP^sol cells", "format": "cell-based, mouse", "details": "for percentage of recipient cells with NM-GFP aggregates: compounds added to cocultures 1 h after co-seeding, three concentrations, 12 h"}, "[2]": {"tested_on": "HEK Tau-FRsol cells", "assay": "Tau-FR aggregate induction by coculture with A375 Tau-GFPAD donor cells", "format": "cell-based, human", "details": "donors 10 μM for 3 d; coculture 3 d in presence of 10 μM; vs DMSO", "description": "(§1) Melanoma cell line A375 (Oricchio E, Sciamanna I, Beraldi R, Tolstonog G V, Schumann G G, Spadafora C. 2007. Distinct roles for LINE-1 and HERV-K retroelements in cell proliferation, differentiation and tumor progression. Oncogene 26:4226-4233) was engineered to stably express Tau-GFP and subsequently exposed to AD brain homogenate to induce Tau aggregation. A clone stably propagating Tau-GFPagg was isolated and used for experiments. Donor A375 Tau-GFPAD cells were treated with 10 μM inhibitor Lopinavir to repress HERV-K protease for 3 d before EV were harvested. Donors or donor EV were then cultured with recipient HEK Tau-FRsol cells in the presence of 10 μM Lopinavir or DMSO for 3 d. • b. Quantitative analysis of recipient cells with Tau-FRagg upon coculture with donors. Statistical analysis was performed with unpaired Student's t-test (n=6). • c. Quantitative analysis of recipient cells with induced Tau-FRagg following exposure to donor-derived EV. Statistical analysis was performed with unpaired Student's t-test (n=3). […]\n(§2) To inhibit methyltransferase, MCF-7 Tau-GFPAD cells were treated with 2 μM Aza or DMSO for 4 d. […] Afterwards, the total numbers of viable cells and the viability upon drug treatments were determined using the Vi-VELLTMXR Cell Viability Analyzer (Beckman Coulter). […]"}, "[3]": {"tested_on": "HEK Tau-FRsol cells", "assay": "Tau-FR aggregate induction by EV from A375 Tau-GFPAD donor cells", "format": "cell-based, human", "details": "EV from donors treated with 10 μM for 3 d; 3 d on recipients in presence of 10 μM; vs DMSO", "description": "as §1, §2"}, "[4]": {"target": "T1, HERV-K protease (Homo sapiens, UniProt P10265)", "T1 sequence (P10265 1-156)": "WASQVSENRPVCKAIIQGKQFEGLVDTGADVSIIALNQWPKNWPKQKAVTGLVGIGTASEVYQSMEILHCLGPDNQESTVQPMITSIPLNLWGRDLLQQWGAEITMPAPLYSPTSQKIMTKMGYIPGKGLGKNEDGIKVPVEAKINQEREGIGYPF", "details": "stated as shown previously; cited from earlier work"}, "[5]": {"tested_on": "MuERV Env and Gag", "format": "cell-based, mouse", "description": "(§3) To inhibit methyltransferases, s2E P1 donor cells were treated for three days with methyltransferase inhibitors 5-Azacytidine (Aza) 200 nM, Decitabine (Dec) 100 nM or DMSO as solvent control. Subsequently, the cells were cultured in the absence of the drugs for 5 days. Pre-treated donor cells were subsequently cocultured with recipient cells as described above to monitor aggregate induction efficiency in recipient N2a NM-GFP^sol cells. Cell lysates of donor cells were also analyzed for MuERV Env and Gag expression levels by western blot. To increase DNA methylation, the s2E donor clone (P21) was treated with methyl group donors L-methionine (L-M) 80 mM, Betaine (B) 80 mM, Choline chloride (CC) 20 mM or medium control for 6 days. MuERV Env and Gag protein levels were analyzed by western blot. Subsequently, cells were cocultured with recipient cells for 16 h. The percentage of aggregate containing recipient cells was compared to the percentage of aggregate bearing recipients cocultured with solvent-treated donors.\nPre-designed siRNAs against murine XPR1 and mCat-1 genes were used to knock-down genes coding for putative receptors. For transfection, 2-4×10^5 cells/well were seeded on 6 well plates. The next day, 30 nM siRNA or plasmid DNA was transfected using Lipofectamine RNAiMAX or Lipofectamine2000 transfection reagent, respectively, according to the manufacturer's instructions (Thermo Fisher Scientific). After 2 days, transfected cells were harvested for aggregate induction assays and qRT-PCR, western blot analysis.\nFor Western blot analysis, protein concentrations were measured using the Quick Start™ Bradford Protein assay (Bio-Rad). Proteins were separated on NuPAGE®Novex® 4-12 Bis-Tris Protein Gels (Life Technologies) followed by transfer onto a PVDF membrane (GE Healthcare). Western blot analysis was performed using rat hybridoma anti-MuERV Env mAb83A25; anti-xenotropic MuLV virus antibody ABIN457298 for detecting both Env and Gag (antibodies-online); mouse anti-MuERV Gag ab100970 (Abcam); mouse anti-Alix (1:1000; BD Bioscience); rat anti-HA 3F10 (1:1000; Roche); mouse anti-GAPDH 6C5 (1:5000; Abcam); mouse anti-Hsc/Hsp70 N27F3-4 (1:1000; ENZO); mouse anti-VSV-G A5977 (Sigma); rabbit anti-Tau ab64193 (Abcam); mouse anti-HERV K Env HERM-1811-5 (Amsbio); mouse anti-HERV K Gag HERM-1841-5 (Amsbio). The membrane was incubated with Pierce™ ECL Western Blotting Substrate (Thermo Fisher Scientific) according to the manufacturer's recommendations."}, "[6]": {"tested_on": "MuERV env and gag mRNA", "assay": "qRT-PCR of MuERV env and gag transcripts in donor clone s2E", "format": "cell-based, mouse", "details": "for total env and gag mRNA: s2E P21 donors, L-methionine 80 mM, Betaine 80 mM, Choline chloride 20 mM, 6 days, vs medium control; for expression of total env and gag mRNA: s2E P1 donors, Aza 200 nM or Dec 100 nM, then 5 days without drug, vs DMSO", "description": "as §3, with “donors. […]” for “donors.”\nTotal RNA from cell pellets or brain samples was isolated using the RNeasy Mini Kit or RNeasy Lipid Tissue Mini Kit (Qiagen). RNA concentration and quality were determined using the Agilent 2100 Bioanalyzer System. For a 20 μl reaction, 1 μg RNAs were reversely transcribed to cDNA using the iScript™ cDNA Synthesis Kit (Bio-Rad). For a 20 μl qRT-PCR reaction, 2 μl of synthesized cDNA was used as template. For qRT-PCR of murine env AA037244.2 and gag AID54952, custom designed TaqMan probes were used (Thermo Fisher Scientific). Pre-designed TaqMan probes by the company for murine pan-env, xpr1, mcat-1 and gapdh as housekeeping control and TaqMan™ Gene Expression Master Mix (Thermo Fisher Scientific) were used. qRT-PCR using TaqMan probes was performed as described in the manufacturer's instruction. For qRT-PCR analyses of HERV family members, primers were designed using the corresponding cDNA sequences (cf. SEQ ID NOs. 73-92). PowerUP SYBR™ Green Master Mix (Thermo Fisher Scientific) was mixed with different cDNAs and corresponding primers as indicated in the instruction. The fast cycling mode was used for all primers."}},
  "note": "“Also recorded” adds a separate entry of the source. Where two headings read alike, the source gives them in different places.",
  "data": [
    {"smiles": "COC(=O)N[C@H](C(=O)N[C@@H](Cc1ccccc1)[C@@H](O)CN(Cc1ccc(-c2ccccn2)cc1)NC(=O)[C@@H](NC(=O)OC)C(C)(C)C)C(C)(C)C", "note": "[atazanavir]", "values": [
      {"measurement": "percentage of recipient cells with NM-GFP aggregates", "setting": "[1]; vs DMSO", "result": "reduced the percentage of recipient cells with NM-GFP aggregates"},
      {"measurement": "percentage of recipient cells with NM-GFP aggregates", "setting": "[1]; vs DMSO, listed as Atazenavir", "result": "reduce aggregate induction"}
    ]},
    {"smiles": "Cc1cccc(C)c1OCC(=O)N[C@@H](Cc1ccccc1)[C@@H](O)C[C@H](Cc1ccccc1)NC(=O)[C@H](C(C)C)N1CCCNC1=O", "note": "[Lopinavir]", "values": [
      {"measurement": "recipient cells with Tau-FRagg upon coculture with donors", "setting": "[2]", "result": "significant reduction of recipient cells with aggregates; also recorded: reduces intercellular Tau aggregate spreading; also recorded: reduces intercellular protein aggregate spreading"},
      {"measurement": "Tau aggregate inducing activity of donor-derived EV in recipients", "setting": "[3]", "result": "reduced Tau aggregate inducing activity in recipients"},
      {"measurement": "inhibition of HERV-K protease required for HERV protein maturation", "setting": "[4]", "result": "inhibit HERV-K protease"}
    ]},
    {"smiles": "CSCC[C@H](N)C(=O)O", "note": "[L-methionine]", "values": [
      {"measurement": "NM-GFP aggregate induction when pretreated donors were cocultured with recipient cells", "setting": "[1]", "result": "decreased NM-GFP aggregate induction"},
      {"measurement": "MuERV proteins", "setting": "[5]", "result": "decreased"},
      {"measurement": "total env and gag mRNA", "setting": "[6]", "result": "transcripts decreased"},
      {"measurement": "total env and gag mRNA", "setting": "[6]; listed as 1-methionine", "result": "decreased total env and gag mRNA"}
    ]},
    {"smiles": "C[N+](C)(C)CCO.[Cl-]", "note": "[Choline chloride]", "values": [
      {"measurement": "NM-GFP aggregate induction when pretreated donors were cocultured with recipient cells", "setting": "[1]", "result": "decreased NM-GFP aggregate induction"},
      {"measurement": "MuERV proteins", "setting": "[5]", "result": "decreased"},
      {"measurement": "total env and gag mRNA", "setting": "[6]", "result": "transcripts decreased"},
      {"measurement": "total env and gag mRNA", "setting": "[6]; listed as choline chloride", "result": "decreased total env and gag mRNA"}
    ]},
    {"smiles": "Nc1ncn([C@@H]2O[C@H](CO)[C@@H](O)[C@H]2O)c(=O)n1", "note": "[5-Azacytidine]", "values": [
      {"measurement": "NM aggregate induction in recipient cells cocultured with pretreated donors", "setting": "[1]; s2E P1 donors pretreated, Aza 200 nM or Dec 100 nM, vs DMSO", "result": "significantly increased NM aggregate induction in recipient cells"},
      {"measurement": "expression of MuERV proteins", "setting": "[5]; s2E P1 donors, Aza 200 nM or Dec 100 nM, then 5 days without drug, vs DMSO", "result": "increased expression"},
      {"measurement": "expression of total env and gag mRNA", "setting": "[6]", "result": "increased expression of total env and gag mRNA"},
      {"measurement": "expression of total env and gag mRNA", "setting": "[6]; listed as 5-azacytidine", "result": "Increased expression of MuERV env (f), gag (h) and pan-env (g) transcripts"}
    ]},
    {"smiles": "C[N+](C)(C)CC(=O)O", "note": "[Betaine]", "values": [
      {"measurement": "NM-GFP aggregate induction when pretreated donors were cocultured with recipient cells", "setting": "[1]; s2E P21 donors pretreated 6 days, coculture 16 h", "result": "decreased NM-GFP aggregate induction"},
      {"measurement": "MuERV proteins", "setting": "[5]; s2E P21 donors, L-methionine 80 mM, Betaine 80 mM, Choline chloride 20 mM, 6 days, vs medium control", "result": "decreased"},
      {"measurement": "total env and gag mRNA", "setting": "[6]", "result": "transcripts decreased"},
      {"measurement": "total env and gag mRNA", "setting": "[6]; listed as betaine", "result": "decreased total env and gag mRNA"}
    ]}
  ]
}
